Test results reported in patent US20230285321A1, “COMPOSITIONS AND METHODS USING A COMBINATION OF AUTOPHAGY INDUCER AND HIGH PROTEIN FOR INDUCTION OF AUTOPHAGY” (SOCIETE DES PRODUITS NESTLE S.A., priority 2018, published 2023).

Tested on: LC3-II protein (muscle autophagy) in skeletal muscle (quadriceps)
Assay: LC3-II western blot (normalized to GAPDH) in quadriceps of mice fed defined diets, with or without autophagy inducer in drinking water
Assay type: in vivo, C57b16/J mice
Settings: 4 weeks ad libitum, 3 mM in drinking water
Procedure: 10-15 week-old C57b16/J mice were fed during ad libitum for 4 weeks with one of: a standard diet, a diet rich in proteins and poor in carbohydrates (high protein isocaloric), or a diet poor in proteins and rich in carbohydrates (low protein isocaloric). Each group was treated or not with 3 mM of autophagy inducer (e.g., spermidine) in the drinking water. Standard diet was composed of 16% fats (Soybean oil), 20% proteins (casein) and 64% carbohydrates (40% cornstarch, 14% dextrinized cornstarch, 10% sucrose). Low protein diet was composed of 16% fats (Soybean oil), 5% proteins (casein) and 79% carbohydrates (62% cornstarch, 10% dextrinized cornstarch, 7% sucrose). […]
Total protein lysates were extracted from 30-50 mg of tissues homogenized in 20 ml/g of RIPA buffer (150 mM sodium chloride, 50 mM Tris pH: 8, 1% Triton X-100, 0.5% deoxycolate, 0.1% SDS, protease inhibitors cocktail) with a tissue dissociator (gentleMACS Miltenyi Biotec). Protein concentration was determined by BCA assay, and samples were prepared adding 4X LDS sample buffer (Invitrogen). […] Membranes were incubated with LC3 (Novus Biologicals 2220) and GAPDH (Cell Signaling 2118) antibodies and detected with ECL substrates (Pierce). Protein quantification was performed by densitometric analysis of images using ImageJ software. […]

NCCCCNCCCN [spermidine]
muscle autophagy (LC3-II protein amount normalized to GAPDH) (high-protein isocaloric diet (60% proteins), ***p<0.001): synergistically induces muscle autophagy | muscle autophagy (LC3-II protein amount normalized to GAPDH) (low protein isocaloric diet (5% proteins)): inactive
